The results in this text go back to US10351559B2, “Maleate salts of a B-RAF kinase inhibitor, crystalline forms, methods of preparation, and uses therefore” (BeiGene, Ltd., priority 2015, dated 2019).

Counter-ions that a name gives are not always drawn. Like-named read-outs stand apart in the source and are kept apart here.

Data set [1] relates to EGFR phosphorylation in A431 cells. The experiment in a line: cellular phospho-EGFR TR-FRET assay. To be noted: Homo sapiens, A-431; EGFR overexpressing A431 cells, 1 h treatment. Format: cell-based. The method, then:
(§1) A375, Sk-Mel-28, HT29, Colo205, A431, and HCC827 cell lines were purchased from American Type Culture Collection. All the cell lines used in the cellular assays were cultured in the designated medium supplemented with 10% fetal bovine serum (FBS, Thermo Scientific), 100 units/mL penicillin (Gibco), 0.1 mg/mL streptomycin (Gibco) and in a humidified 37° C. environment with 5% CO2. Cell lines were reinstated from frozen stocks laid down within three passages from the original cells purchased and passaged no more than 30 times.
(§2) Cellular phospho-ERK and phospho-EGFR were measured using a TR-FRET-based method. Cells were seeded at 3×10^4 per well of a 96-well plate and left to attach for 16 hours. Growth medium was then replaced with 100 μL of medium containing no serum. Cells were then treated with a 10-point titration of compound. After 1 h of compound treatment, 50 μL of lysis buffer (Cisbio) were added to each well. Plates were then incubated at room temperature with shaking for 30 min. A total of 16 μL of cell lysate from each well of a 96-well plate was transferred to a 384-well small volume white plate. […] FRET signals were measured using a PHERAstar FS reader (BMG Labtech). IC50 values for ERK or EGFR phosphorylation was determined using GraphPad Prism software.

Data set [2] relates to EGFR phosphorylation in HCC827 cells. The experiment in a line: cellular phospho-EGFR TR-FRET assay. Format: cell-based. To be noted: Homo sapiens; EGFR mutant HCC827 lung cancer cells, 1 h treatment. The method, then: as §1, §2
A short description of data set [3]: aqueous solubility study. It is filed as physicochemical. To be noted: sesqui-maleate salt.
Data set [4] has as its system ERK1/2 phosphorylation in A375 xenografts. The experiment in a line: PD study, p-ERK1/2 in tumor tissue (AlphaScreen SureFire). It is filed as in vivo. To be noted: A375 xenografts in mice, oral administration. The method, then: Human cancer cells were inoculated subcutaneously in the right axilla region of BALB/C nude mice to generate tumor xenografts. On the day of implantation, the cell culture medium was replaced with fresh medium. Three hours later, the media was removed and the cells were collected and re-suspended in cold (4° C.) PBS prior to inoculation. The right axilla region of each mouse was cleaned with 70% ethanol prior to cell inoculation. Each animal was injected subcutaneously with desired cells in 200 μl of cell suspension in the right front flank via a 26-gauge needle. After implantation tumor volumes were measured twice weekly in two dimensions using a calliper. Tumor volume was calculated using the formula: V=0.5×(a×b^2) where a and b are the long and short diameters of the tumor, respectively.
For PD study, when the average tumor size reaches 140-900 mm^3, animals were assigned into desired number of groups with 4 mice per group using a stratified randomization procedure. The groups consisted of a control group (no drug treatment), and different dose levels of Crystalline Form A* of Compound 1 Sesqui-Maleate treatment groups (ranged from 1-20 mg/kg). All doses were based on free-base weight. Drugs were administered by oral gavage once (qd) or twice (bid) daily. […] Body weight was assessed immediately before dosing and the volume dosed was adjusted accordingly. […]
On the technique in general: Bead proximity is the source of the signal in Alpha formats.

Data set [5] can be described thus: long-term stability study. It is filed as physicochemical.
The nature of data set [6]: pharmacokinetic comparison of sesqui-maleate and free base, oral. Format: in vivo, Beagle dogs. The following applies: dogs. The text has this: Drugs and reagents: Crystalline Form A* of Compound 1 Sesqui-Maleate with particle sizes of D90=4.1 um, D10=1.5 um, D50=2.4 um after micronization. The material content (purity) was not less than 98.0%.
Experiment animals: Beagle dogs, male and female.
Pharmaceutical preparation: Weigh the appropriate amount of each substance and disperse in 0.5% sodium carboxymethyl cellulose (for the free base of Compound 1) or 0.5% methyl cellulose solution (for Compound 1 Sesqui-Maleate). Prepare a suspension at the desired concentration of Compound 1. All the doses and concentrations of Compound 1 were calculated with free base in this study.
Administration and sample collection: The dosing solutions will be freshly prepared prior to dose administration. The actual body weights and actual volume injected will be recorded accordingly. The dogs were fasted overnight and were allowed to intake food four hours after dosing. Each suspension was administrated orally to dogs at a dose ranged from 0.5 to 15 mg/kg. Blood samples (˜1.0 mL) will be collected at pre-dose and at different times up to 36 hours postdosing via cephalic vein plexus. Whole blood will be processed by centrifugation and plasma samples will be collected and kept at freezer prior to analysis. Plasma samples were processed by protein precipitation. Concentrations of Compound 1 in the plasma samples were determined using a validated liquid chromatography-tandem mass spectrometry (LC-MS/MS) method. The plasma concentration-time data were analyzed using a non-compartmental model using Pharsight WinNonlin.

[7] abbreviates: oral dose 1 mg/kg (free base), listed as Sesqui-Maleate (Micronized Crystalline Form A*), sesqui-maleate salt, 1 mg/kg.

By IC50 is commonly meant the point on the concentration scale where inhibition reaches its midpoint. As a reminder, the aqueous solubility is how much of the substance goes into solution per volume. For orientation: Cmax means the maximum level reached in the sampled fluid or tissue. In the case of `O=C1CCc2c(Oc3ccc4c(c3)[C@@H]3[C@H](O4)[C@H]3c3nc4ccc(C(F)(F)F)cc4[nH]3)ccnc2N1` [5-(((1R,1aS,6bR)-1-(6-(trifluoromethyl)-1H-benzo[d]imidazol-2-yl)-1a,6b-dihydro-1H-cyclopropa[b]benzofuran-5-yl)oxy)-3,4-dihydro-1,8-naphthyridin-2(1H)-one sesqui-maleate salt], the IC50 in data set [1] turned out to be 385 nM; in data set [2], 161 nM. In data set [3], the “solubility in water” value is reported as “slightly soluble in water”. Besides, the aqueous solubility in data set [3] (water, LOQ at 0.001 mg/mL) was 0.020 mg/mL. The “inhibition of ERK1/2 phosphorylation in tumor” value in data set [4] was “time-dependent and dose-dependent inhibition”. For the same compound, the “purity after stability study” value in data set [5] (24 month at 25 C/75% RH) came out at 98.5%. For the same compound, the “crystal form and optical purity changes” value in data set [5] (25° C./60% RH up to 18 months and 40° C./75% RH up to 6 months) is “no crystal form and optical purity changes were observed”. Also, the Assay w/w in data set [5] (T0, 25° C./60% RH study) is listed as 99.1%; in data set [5] (T0, 40° C./75% RH study), 99.1%; in data set [5] (T6: 6 months at 40° C./75% RH), 98.9%; in data set [5] (T18: 18 months at 25° C./60% RH), 98.8%. Besides, the highest concentration (Cmax) in data set [6] (both sexes, beagle, dog, plasma, po, 0.5 mg/kg, oral dose 0.5 mg/kg, read-out: Cmax) amounted to 342 ng/mL; in data set [6] (both sexes, beagle, dog, plasma, po, 1.5 mg/kg, oral dose 1.5 mg/kg, read-out: Cmax), 861 ng/mL; in data set [6] (both sexes, beagle, dog, plasma, po, 4.5 mg/kg, oral dose 4.5 mg/kg, read-out: Cmax) it was 2880 ng/mL; in data set [6] (both sexes, beagle, dog, plasma, po, 15 mg/kg, oral dose 15 mg/kg, read-out: Cmax), 5310 ng/mL; in data set [6] (setting [7]), 607 ng/mL. Also, in data set [6] (oral), the “AUC0-inf relative to the free base form” value is on record as 2-3 times. In addition, the “Cmax relative to the free base form” value in data set [6] (oral) was 2-3 times. Also, the “Dose-Normalized AUC0-inf” value in data set [6] (oral dose 0.5 mg/kg) was 4178 ng·kg·h/mL/mg; in data set [6] (setting [7]) it was 2960 ng·kg·h/mL/mg; in data set [6] (oral dose 1.5 mg/kg), 3726 ng·kg·h/mL/mg; in data set [6] (oral dose 4.5 mg/kg) it was 4390 ng·kg·h/mL/mg; in data set [6] (oral dose 15 mg/kg), 2841 ng·kg·h/mL/mg.
